Measured values as given in US4112228A, “7-(D-α-Hydroxy-2-arylacetamido)-3-(2-carboxyalkyl-2,3-dihydro-s-tri azolo-[4,3-b]pyridazin-3-on-6-ylthiomethyl)-3-cephem-4-carboxylic acids and derivatives” (priority 1977, dated 1978).
In brackets after ≈: the same amount, converted by molar mass.

What was measured:
S. aureus = experiment: MIC by Steers' agar dilution method; type: cell-based; details: Staphylococcus aureus
Sal. anthracis = experiment: microbe, parasite or virus in culture; type: cell-based
B. anthracis = experiment: microbe, parasite or virus in culture; type: cell-based; details: Bacillus anthracis
bacteria of Table 4 = experiment: Media effect on MIC (Nutrient, Mueller-Hinton, Heart-Infusion agar); type: cell-based; details: NA, MHA, HIA
[1] = Stability in solution (remaining activity by paper disc assay); type: physicochemical; details: for Remaining Activity (%): 0 days; for remaining at 48 h: 2 days; for remaining at 72 h: 3 days; for remaining at 168 h: 7 days
Procedure: Stability of BB-[…] was determined in both a 10% and an 0.02% solution. The stability is indicated as the relative activity remaining in the test solution at given periods to the initial solution. The activity was assayed using paper discs on B. subtilis PCI 219 plate (pH 6).

[2] = Nephrotoxicity test in rabbits; details: 100 mg./kg. (iv)
Pr. morganii = experiment: MIC by Steers' agar dilution method; details: Morganella morganii
Ps. aeruginosa = experiment: MIC by Steers' agar dilution method; details: Pseudomonas aeruginosa
D. pneumoniae = experiment: MIC by Steers' agar dilution method
Citrobacter sp. = experiment: MIC by Steers' agar dilution method
[3] = 0.02% solution, pH 4 (0.1 M AcOH - NaOAc buffer)
[4] = 0.02% solution, pH 7 (0.1 M phosphate buffer)
[5] = 0.1 m nh4oh-nh4cl buffer, 0.02% solution, pH 9 (0.1 M NH4 OH--NH4 Cl buffer)
[6] = 10% aqueous solution, room temperature, pH 6.1 (unadjusted)
[7] = strain not given (1st of 2), MHA, Example 10
[8] = strain not named (2nd of 2), MHA, Example 10

For `O=C(O)Cn1nc2ccc(SCC3=C(C(=O)O)N4C(=O)C(NC(=O)[C@H](O)c5ccccc5)[C@H]4SC3)nn2c1=O` (stereo partly drawn) [BB-S488, 7-(D-Mandelamido)-3-(2-carboxymethyl-2,3-dihydro-s-triazolo[4,3-b]pyridazin-3-on-6-ylthiomethyl)-3-cephem-4-carboxylic Acid], the MIC (S. aureus; A9497, MHA, Table 1) was 0.1 µg/mL (≈ 0.175 µM), the MIC (S. aureus; BX-1633, MHA, Example 10) was 3.1 µg/mL (≈ 5.41 µM) and the MIC (S. aureus; BX-1633 A9606, MHA, Table 1) was 0.4 µg/mL (≈ 0.699 µM). For the same molecule, the MIC (S. aureus; Sa-2 Smith A9537, HIA, Table 4) was 0.8 µg/mL (≈ 1.4 µM), the MIC (S. aureus; Sa-2 Smith A9537, MHA, Table 2) was 0.4 µg/mL (≈ 0.699 µM) and the MIC (S. aureus; Sa-2 Smith A9537, MHA, Table 4) was 0.8 µg/mL (≈ 1.4 µM). For the same molecule, the MIC (S. aureus; Sa-2 Smith A9537, NA, Table 4) was 0.8 µg/mL (≈ 1.4 µM), the MIC (S. aureus; Sa-3 No. 193, MHA, Table 2) was 0.8 µg/mL (≈ 1.4 µM) and the MIC (S. aureus; Sa-8, MHA, Table 2) was 0.4 µg/mL (≈ 0.699 µM). The MIC (S. aureus; Sa-9 No. 193, MHA, Table 2) was 0.8 µg/mL (≈ 1.4 µM), the MIC (S. aureus; Sa-10 A20239, MHA, Table 2) was 1.6 µg/mL (≈ 2.79 µM) and the MIC (S. aureus; Sa-11 BX-1633 A9606 (β-lactamase), HIA, Table 4) was 1.6 µg/mL (≈ 2.79 µM). It also gave an MIC (S. aureus; Sa-11 BX-1633 A9606 (β-lactamase), MHA, Table 4) of 0.8 µg/mL (≈ 1.4 µM), an MIC (S. aureus; Sa-11 BX-1633 A9606 (β-lactamase), NA, Table 4) of 3.1 µg/mL (≈ 5.41 µM) and an MIC (S. aureus; Sa-11 BX-1633 A9606, MHA, Table 2) of 0.4 µg/mL (≈ 0.699 µM). It also gave an MIC (S. aureus; Sa-12 A9497, MHA, Table 2) of 0.2 µg/mL (≈ 0.349 µM), an MIC (S. aureus; Sa-29 No. 193, MHA, Table 2) of 1.6 µg/mL (≈ 2.79 µM) and an MIC (S. aureus; Sa-33 Terajima, MHA, Table 2) of 0.0125 µg/mL (≈ 0.0218 µM). The MIC (S. aureus; Sa-34 A15092, MHA, Table 2) was 0.8 µg/mL (≈ 1.4 µM), the MIC (S. aureus; Sa-35 A15094, MHA, Table 2) was 0.8 µg/mL (≈ 1.4 µM) and the MIC (S. aureus; Sa-36 Russell, MHA, Table 2) was 0.8 µg/mL (≈ 1.4 µM). The MIC (S. aureus; Sa-37 A9524, MHA, Table 2) was 1.6 µg/mL (≈ 2.79 µM), the MIC (S. aureus; Sa-38 A9534, MHA, Table 2) was 0.4 µg/mL (≈ 0.699 µM) and the MIC (S. aureus; Sa-39 A9578, MHA, Table 2) was 0.8 µg/mL (≈ 1.4 µM). It also gave an MIC (S. aureus; Sa-40 A9601, MHA, Table 2) of 0.8 µg/mL (≈ 1.4 µM), an MIC (S. aureus; Sa-41 A9602, MHA, Table 2) of 0.8 µg/mL (≈ 1.4 µM) and an MIC (S. aureus; Sa-44 A15097, HIA, Table 4) of over 100 µg/mL. It also gave an MIC (S. aureus; Sa-44 A15097, MHA, Table 2) of 25 µg/mL (≈ 43.7 µM), an MIC (S. aureus; Sa-44 A15097, MHA, Table 4) of 100 µg/mL (≈ 175 µM) and an MIC (S. aureus; Sa-44 A15097, NA, Table 4) of over 100 µg/mL. It also gave an MIC (S. aureus; Sa-56 A9630, MHA, Table 2) of 3.1 µg/mL (≈ 5.41 µM), an MIC (S. aureus; Sa-57 A9748, MHA, Table 2) of 25 µg/mL (≈ 43.7 µM) and an MIC (S. aureus; Sa-58 A15033, MHA, Table 2) of 12.5 µg/mL (≈ 21.8 µM). For the same molecule, the MIC (S. aureus; Sa-59 A15096, MHA, Table 2) was 100 µg/mL (≈ 175 µM), the MIC (S. aureus; Sa-60 A20604, MHA, Table 2) was 50 µg/mL (≈ 87.3 µM) and the MIC (S. aureus; Sa-61 A20605, MHA, Table 2) was 100 µg/mL (≈ 175 µM). For the same molecule, the MIC (S. aureus; Sa-62 A20606, MHA, Table 2) was 3.1 µg/mL (≈ 5.41 µM), the MIC (S. aureus; Sa-63 A20607, MHA, Table 2) was over 100 µg/mL and the MIC (S. aureus; Sa-64 A20608, MHA, Table 2) was 100 µg/mL (≈ 175 µM). The MIC (S. aureus; Sa-65 A20609, MHA, Table 2) was 100 µg/mL (≈ 175 µM), the MIC (S. aureus; Sa-66 A20610, MHA, Table 2) was 100 µg/mL (≈ 175 µM) and the MIC (S. aureus; Sa-67 A20611, MHA, Table 2) was 100 µg/mL (≈ 175 µM). For the same molecule, the MIC (S. aureus; Sa-68 A20612, MHA, Table 2) was 1.6 µg/mL (≈ 2.79 µM), the MIC (S. aureus; Sa-69 A20613, MHA, Table 2) was 100 µg/mL (≈ 175 µM) and the MIC (S. aureus; Smith A9537, MHA, Table 1) was 0.2 µg/mL (≈ 0.349 µM). For the same molecule, the MIC (S. aureus; Smith, MHA, Example 10) was 0.8 µg/mL (≈ 1.4 µM), the MIC (S. aureus; strain not named, MHA, Example 10) was 0.4 µg/mL (≈ 0.699 µM) and the MIC (Sal. anthracis) was 0.1 µg/mL (≈ 0.175 µM). It also gave an MIC (B. anthracis; Ba-3 A9504, HIA, Table 4) of 0.2 µg/mL (≈ 0.349 µM), an MIC (B. anthracis; Ba-3 A9504, MHA, Table 4) of 0.2 µg/mL (≈ 0.349 µM) and an MIC (B. anthracis; Ba-3 A9504, NA, Table 4) of 0.4 µg/mL (≈ 0.699 µM). The MIC (B. anthracis; MHA, Example 10) was 0.2 µg/mL (≈ 0.349 µM), the “Media effect on MIC” value (bacteria of Table 4) was “little media effect” and the “Remaining Activity (%)” value [1, 3] was 100%. The remaining at 48 h [1, 3] was 93%, the remaining at 72 h [1, 3] was 78% and the remaining at 168 h [1, 3] was 102%. For the same molecule, the “Remaining Activity (%)” value [1, 4] was 100%, the remaining at 48 h [1, 4] was 87% and the remaining at 72 h [1, 4] was 64%. The remaining at 168 h [1, 4] was 56%, the “Remaining Activity (%)” value ([1]; 0.02% solution, pH 9 (0.1 M NH4 OH--NH4 Cl buffer)) was 100% and the remaining at 24 h ([1]; 0.1 m nh4oh-nh4cl buffer, 0.02% solution, pH 9 (0.1 M NH4 OH--NH4 Cl buffer), 1 day) was 20%. It also gave a remaining at 48 h [1, 5] of 14%, a remaining at 72 h [1, 5] of 13% and a remaining at 168 h [1, 5] of 0%. For the same molecule, the “Remaining Activity (%)” value [1, 6] was 100%, the remaining at 48 h [1, 6] was 128% and the remaining at 72 h [1, 6] was 90%. The remaining at 168 h [1, 6] was 116%, the Nephrotoxicity [2] was “No nephrotoxic sign was seen” and the MIC (Pr. morganii; A9553, MHA, Table 1) was over 100 µg/mL. For the same molecule, the MIC (Pr. morganii; A20031, MHA, Table 1) was 0.1 µg/mL (≈ 0.175 µM), the MIC (Pr. morganii; Pg-1 A9553 (β-lactamase), HIA, Table 4) was over 100 µg/mL and the MIC (Pr. morganii; Pg-1 A9553 (β-lactamase), MHA, Table 4) was over 100 µg/mL. The MIC (Pr. morganii; Pg-1 A9553 (β-lactamase), NA, Table 4) was over 100 µg/mL, the MIC (Pr. morganii; Pg-1 A9553, MHA, Table 3) was over 100 µg/mL and the MIC (Pr. morganii; Pg-2 A20031, HIA, Table 4) was 0.2 µg/mL (≈ 0.349 µM). The MIC (Pr. morganii; Pg-2 A20031, MHA, Table 3) was 0.2 µg/mL (≈ 0.349 µM), the MIC (Pr. morganii; Pg-2 A20031, MHA, Table 4) was 0.1 µg/mL (≈ 0.175 µM) and the MIC (Pr. morganii; Pg-2 A20031, NA, Table 4) was 0.2 µg/mL (≈ 0.349 µM). For the same molecule, the MIC (Pr. morganii; Pg-3 A9636, MHA, Table 3) was 0.8 µg/mL (≈ 1.4 µM), the MIC (Pr. morganii; Pg-5 A15166, MHA, Table 3) was 0.1 µg/mL (≈ 0.175 µM) and the MIC (Pr. morganii; Pg-6 A20455 (β-lactamase), HIA, Table 4) was 0.8 µg/mL (≈ 1.4 µM). It also gave an MIC (Pr. morganii; Pg-6 A20455 (β-lactamase), MHA, Table 4) of 0.4 µg/mL (≈ 0.699 µM), an MIC (Pr. morganii; Pg-6 A20455 (β-lactamase), NA, Table 4) of 0.4 µg/mL (≈ 0.699 µM) and an MIC (Pr. morganii; Pg-6 A20455, MHA, Table 3) of 0.4 µg/mL (≈ 0.699 µM). It also gave an MIC (Pr. morganii; Pg-7 A20457, MHA, Table 3) of 0.2 µg/mL (≈ 0.349 µM), an MIC (Pr. morganii; Pg-8 A15153, MHA, Table 3) of 0.1 µg/mL (≈ 0.175 µM) and an MIC (Pr. morganii; Pg-9 A15149, MHA, Table 3) of 0.8 µg/mL (≈ 1.4 µM). For the same molecule, the MIC (Pr. morganii; [7]) was over 100 µg/mL, the MIC (Pr. morganii; [8]) was 0.2 µg/mL (≈ 0.349 µM) and the MIC (Ps. aeruginosa; A9843, MHA, Table 1) was over 100 µg/mL. It also gave an MIC (Ps. aeruginosa; A9930, MHA, Table 1) of over 100 µg/mL, an MIC (Ps. aeruginosa; Pa-3 A9930, HIA, Table 4) of over 100 µg/mL and an MIC (Ps. aeruginosa; Pa-3 A9930, MHA, Table 4) of over 100 µg/mL. The MIC (Ps. aeruginosa; Pa-3 A9930, NA, Table 4) was 100 µg/mL (≈ 175 µM), the MIC (Ps. aeruginosa; [7]) was over 100 µg/mL and the MIC (Ps. aeruginosa; [8]) was over 100 µg/mL. For the same molecule, the MIC (D. pneumoniae; Dp-2 Type I Neufeld, MHA, Table 2) was 0.2 µg/mL (≈ 0.349 µM), the MIC (D. pneumoniae; Dp-3 Type III, MHA, Table 2) was 0.2 µg/mL (≈ 0.349 µM) and the MIC (D. pneumoniae; Dp-4 A9585, MHA, Table 2) was 0.2 µg/mL (≈ 0.349 µM). The MIC (D. pneumoniae; Dp-5 A15069, MHA, Table 2) was 0.2 µg/mL (≈ 0.349 µM), the MIC (D. pneumoniae; Dp-6 A20167, MHA, Table 2) was 0.2 µg/mL (≈ 0.349 µM) and the MIC (D. pneumoniae; Dp-7 A20759, MHA, Table 2) was 0.2 µg/mL (≈ 0.349 µM). For the same molecule, the MIC (D. pneumoniae; Dp-8 A20769, MHA, Table 2) was 0.2 µg/mL (≈ 0.349 µM), the MIC (D. pneumoniae; Dp-9 A20770, MHA, Table 2) was 0.2 µg/mL (≈ 0.349 µM) and the MIC (D. pneumoniae; Streptococcus pneumoniae) was 0.2 µg/mL (≈ 0.349 µM). The MIC (Citrobacter sp.; Citrobacter) was 1.6 µg/mL (≈ 2.79 µM), the MIC (Citrobacter sp.; Cx-2 A20694, MHA, Table 3) was 1.6 µg/mL (≈ 2.79 µM) and the MIC (Citrobacter sp.; Cx-3 A20695, MHA, Table 3) was 1.6 µg/mL (≈ 2.79 µM).
